Common to all, as to experiment: MIC of vancomycin by serial dilution in 96-well plates with or without D-Ala
Format in all cases: cell-based
Common to all, as to settings: for MIC: Enterococcus faecium

Assay [1] deals with vanA-positive Enterococcus faecium clinical isolate vanA10. The procedure: (§1) Having established the important role of D-Ala in enhancing the efficacy of vancomycin against vancomycin-resistant S. coelicolor cells, next, its effect on the resistance of clinical isolates of Enterococcus faecium, which were vanA-positive strains, was assessed. MIC values were calculated by testing a serial dilution of vancomycin in the presence or absence of D-Ala in triplicate (Table 3).
(§2) The MIC was determined by measurement of the OD600 or by visual assessment, following the Clinical Laboratory and Standards Institute (CLSI) guidelines. […] This value compares to intermediate instead of total resistance. The strains were serially diluted in a 96-well plate and growth was assayed at OD600. The steps down refer to CSLI guidelines for clinical MIC measurements.
(§3) Five vanA-positive Enterococcus faecium strains were collected in 2011 and 2014 from patients in the Erasmus University Medical Centre, Rotterdam, The Netherlands. Presence of the vanA gene was confirmed by real-time PCR with the LIGHTCYCLER® 480 instrument (Roche Diagnostics, Almere, The Netherlands) with the primers vanA F1 and vanA R1, and the vanA probe. The resistance profile of these isolates was determined as MIC values using the VITEK II (BioMerieux) system AST-P586. To determine the MIC of vancomycin against E. faecium, cells were grown overnight on Trypticase Soy Agar (TSA) blood agar plates (Becton Dickinson, Breda, The Netherlands) and suspended in 0.9% NaCl until OD600 0.5 (±0.05). Of this suspension, 10 μl was dispensed into wells of sterile flat-bottom 96-well polystyrene tissue culture plates (Greiner Bio-One, Alphen aan Den Rijn, The Netherlands) containing serial dilutions of vancomycin in 190 μl of a 1:1 mixture of Fetal Bovine Serum (FBS) (Gibco, Bleiswijk, The Netherlands) and Iscove's Modified Dulbecco's Medium (IMDM) (without phenolred, Gibco, Bleiswijk, The Netherlands), and in the presence or absence of 50 mM D-alanine (Alfa Aesar, Ward Hill, Mass., USA). Plates were incubated for 18-24 hours at 37° C. and MIC values determined visually following the CLSI guidelines, or by spectrophotometer at 600 nm.

Assay [2] deals with vanA-positive Enterococcus faecium clinical isolate vanA3. The protocol:
as §1, §2, §3

In assay [3] the test system is vanA-positive Enterococcus faecium clinical isolate vanA4. The protocol: as §1, §2, §3
For assay [4], the system named is vanA-positive Enterococcus faecium clinical isolate vanA1. The procedure:
as §1, §2, §3

For assay [5], the system named is vanA-positive Enterococcus faecium clinical isolate vanA2. The procedure: as §1, §2, §3

Each structure is given as a SMILES string. Where two headings read alike, the source gives them in different places.

Experimental findings from patent publication US20190000789A1, “COMPOSITION AND METHOD FOR TREATING INFECTIONS CAUSED BY VANCOMYCIN-RESISTANT INFECTIOUS AGENTS IN A SUBJECT” (priority 2015, published 2019) are described below.

What is called MIC is the smallest concentration in the dilution series that meets the test's criterion for growth inhibition.

In the case of `CN[C@H](CC(C)C)C(=O)N[C@H]1C(=O)N[C@@H](CC(N)=O)C(=O)N[C@H]2C(=O)N[C@H]3C(=O)N[C@H](C(=O)N[C@H](C(=O)O)c4cc(O)cc(O)c4-c4cc3ccc4O)[C@H](O)c3ccc(c(Cl)c3)Oc3cc2cc(c3O[C@@H]2O[C@H](CO)[C@@H](O)[C@H](O)[C@H]2O[C@H]2C[C@](C)(N)[C@H](O)[C@H](C)O2)Oc2ccc(cc2Cl)[C@H]1O` [vancomycin], the minimal inhibitory concentration (MIC) in assay [1] (vanA10, 50 mM D-Ala, read-out: MIC with 50 mM D-Ala) is 16 µg/mL; in assay [1] (vanA10, read-out: MIC without D-Ala) it was 2050 µg/mL; in assay [2] (vanA3, 50 mM D-Ala, read-out: MIC with 50 mM D-Ala), 128 µg/mL; in assay [2] (vanA3, read-out: MIC without D-Ala), 4100 µg/mL; in assay [3] (vanA4, 50 mM D-Ala, read-out: MIC with 50 mM D-Ala) it was 128 µg/mL; in assay [3] (vanA4, read-out: MIC without D-Ala), 4100 µg/mL. Further, the MIC worked out at 256 µg/mL in assay [4] (vanA1, 50 mM D-Ala, read-out: MIC with 50 mM D-Ala); 4100 µg/mL in assay [4] (vanA1, read-out: MIC without D-Ala); 256 µg/mL in assay [5] (vanA2, 50 mM D-Ala, read-out: MIC with 50 mM D-Ala); 4100 µg/mL in assay [5] (vanA2, read-out: MIC without D-Ala). Further, the “reduction of MIC” value was ~128 in assay [1] (vanA10, 50 mM D-Ala, approximation based on 2-fold dilution steps); ~32 in assay [2] (vanA3, 50 mM D-Ala, approximation based on 2-fold dilution steps); ~32 in assay [3] (vanA4, 50 mM D-Ala, approximation based on 2-fold dilution steps); ~16 in assay [4] (vanA1, 50 mM D-Ala, approximation based on 2-fold dilution steps); ~16 in assay [5] (vanA2, 50 mM D-Ala, approximation based on 2-fold dilution steps).
